The record followed here is US10246466B2, “Diaryl macrocycles as modulators of protein kinases” (TP THERAPEUTICS, INC., priority 2014, dated 2019).

Bounds are passed on as bounds.

Assay type in all cases: cell-based
Assay [1] concerns Colorectal cell line KM12 (harboring endogenous TPM3-TRKA fusion gene). Nature of the assay: KM12 cell proliferation assay (CellTiter-Glo). Particulars: Homo sapiens, 72 hours incubation, read-out: KM 12 cell prolif. IC50. The protocol:
Colorectal cell lines KM 12 (harboring endogenous TPM3-TRKA fusion gene) cells were cultured in DMEM medium, supplemented with 10% fetal bovine serum and 100 U/mL of penicillin/streptomycin. 5000 cells were seeded in 384 well white plate for 24 hours before compounds treatment. Cell proliferation was measured using CellTiter-Glo luciferase-based ATP detection assay (Promega) following the manufactures's protocol after 72 hours incubation. IC50 determinations were performed using GraphPad Prism software (GraphPad, Inc., San Diego, Calif.).
Alternatively: Colorectal cell line KM12 (harboring endogenous TPM3-TRKA fusion gene) cells were cultured in DMEM medium, supplemented with 10% fetal bovine serum and 100 U/mL of penicillin/streptomycin. […] 5000 cells were seeded in 384 well white plate for 24 hours before compounds treatment. Cell proliferation was measured using CellTiter-Glo luciferase-based ATP detection assay (Promega) following the manufactures's protocol after 72 hours incubation. IC50 determinations were performed using GraphPad Prism software (GraphPad, Inc., San Diego, Calif.).

Assay [2] relates to Essential thrombocythemia cell line SET-2 cells (harboring endogenous JAK2 point mutation). Nature of the assay: SET-2 cell proliferation assay (CellTiter-Glo). The conditions noted are these: Homo sapiens, 72 hours incubation, read-out: SET2 cell proli. IC50.
Assay [3] deals with T cell lymphoma Karpas-299 cell line (harboring endogenous NPM-ALK fusion gene). Nature of the assay: Karpas-299 cell proliferation assay (CellTiter-Glo). Particulars: Homo sapiens, 72 hours incubation, read-out: Karpas 299 cell proli. IC50.

As to `CCCN1Cc2cc(F)ccc2OCCNC(=O)c2cnn3ccc1nc23` [Example 44, 11-fluoro-14-propyl-6,7,13,14-tetrahydro-1,15-ethenopyrazolo[4,3-f][1,4,8,10]benzoxatriazacyclotridecin-4(5H)-one], the IC50 came to 9.9 nM in assay [1], 2030 nM in assay [2] and 4100 nM in assay [3].
As to `O=C1NCCOc2ccc(F)cc2CN(C2CC2)c2ccn3ncc1c3n2` [Example 46, 14-cyclopropyl-11-fluoro-6,7,13,14-tetrahydro-1,15-ethenopyrazolo[4,3-f][1,4,8,10]benzoxatriazacyclotridecin-4(5H)-one], the results for the IC50 in assay [1], in assay [2] and in assay [3] were 1.5 nM, 7000 nM and 7100 nM, respectively.
For `O=C1NCCOc2ccc(F)cc2CN(CCO)c2ccn3ncc1c3n2` [Example 47, 11-fluoro-14-(2-hydroxyethyl)-6,7,13,14-tetrahydro-1,15-ethenopyrazolo[4,3-f][1,4,8,10]benzoxatriazacyclotridecin-4(5H)-one], in that order: 31 nM, > 10000 nM and > 10000 nM.
`CC1COc2ccc(F)cc2CN(C)c2ccn3ncc(c3n2)C(=O)N1` (stereo not drawn) [Example 48, 11-fluoro-6,14-dimethyl-6,7,13,14-tetrahydro-1,15-ethenopyrazolo[4,3-f][1,4,8,10]benzoxatriazacyclotridecin-4(5H)-one]: the IC50 in assay [1] came to 62 nM; in assay [2] it was 6000 nM; in assay [3], 6000 nM.
On to `COC(=O)C1Nc2ccn3ncc(c3n2)C(=O)NCCOc2ccc(F)cc21` (stereo not drawn) [Example 59, methyl 11-fluoro-4-oxo-4,5,6,7,13,14-hexahydro-1,15-ethenopyrazolo[4,3-f][1,4,8,10]benzoxatriazacyclotridecine-13-carboxylate], for which the IC50 in assay [1] is > 1000 nM.
With `NC(=O)C1Nc2ccn3ncc(c3n2)C(=O)NCCOc2ccc(F)cc21` (stereo not drawn) [Example 60, 11-fluoro-4-oxo-4,5,6,7,13,14-hexahydro-1,15-ethenopyrazolo[4,3-f][1,4,8,10]benzoxatriazacyclotridecine-13-carboxamide], the IC50 in assay [1] is > 1000 nM.
`CN1Cc2cc(F)cnc2OCCNC(=O)c2cnn3ccc1nc23` [Example 61, 11-fluoro-14-methyl-6,7,13,14-tetrahydro-1,15-ethenopyrazolo[4,3-f]pyrido[3,2-1][1,4,8,10]oxatriazacyclotridecin-4(5H)-one]: the 50% inhibitory concentration (IC50) stood at 0.6 nM in assay [1], 3750 nM in assay [2] and 3900 nM in assay [3].
Turning to `CC(C)N1Cc2cc(F)cnc2OCCNC(=O)c2cnn3ccc1nc23` [Example 62, 11-fluoro-14-(propan-2-yl)-6,7,13,14-tetrahydro-1,15-ethenopyrazolo[4,3-f]pyrido[3,2-1][1,4,8,10]oxatriazacyclotridecin-4(5H)-one], the IC50 in assay [1] amounted to 0.9 nM; in assay [3], 4000 nM.
As to `O=C1NCCOc2ccc(F)cc2C(C2CC2)Nc2ccn3ncc1c3n2` (stereo not drawn) [Example 66, 13-cyclopropyl-11-fluoro-6,7,13,14-tetrahydro-1,15-ethenopyrazolo[4,3-f][1,4,8,10]benzoxatriazacyclotridecin-4(5H)-one], the IC50 in assay [1] is 17.5 nM; in assay [2], 1540 nM; in assay [3], 1900 nM.
For `CC(C)C1Nc2ccn3ncc(c3n2)C(=O)NCCOc2ccc(F)cc21` (stereo not drawn) [Example 67, 11-fluoro-13-(propan-2-yl)-6,7,13,14-tetrahydro-1,15-ethenopyrazolo[4,3-f][1,4,8,10]benzoxatriazacyclotridecin-4(5H)-one], in that order: 2.8 nM, 1230 nM and 1200 nM.
Take `C[C@H]1Nc2ccn3ncc(c3n2)C(=O)NCCCOc2ccc(F)cc21` [Example 76-1, (14R)-12-fluoro-14-methyl-5,6,7,8,14,15-hexahydro-4H-1,16-ethenopyrazolo[4,3-g][1,5,9,11]benzoxatriazacyclotetradecin-4-one]: the figures for the IC50 in assay [1], in assay [2] and in assay [3] were 5.8 nM, 1000 nM and 3800 nM, respectively.
For `CC1Nc2ccn3ncc(c3n2)C(=O)NCCOc2ccc(Cl)cc21` (stereo not drawn) [Example 84, 11-chloro-13-methyl-6,7,13,14-tetrahydro-1,15-ethenopyrazolo[4,3-f][1,4,8,10]benzoxatriazacyclotridecin-4(5H)-one], in that order: 0.8 nM, 3150 nM and 4200 nM.
For `CCC1Nc2ccn3ncc(c3n2)C(=O)NCCOc2ccc(F)cc21` (stereo not drawn) [Example 85, 13-ethyl-11-fluoro-6,7,13,14-tetrahydro-1,15-ethenopyrazolo[4,3-f][1,4,8,10]benzoxatriazacyclotridecin-4(5H)-one], in that order: 0.9 nM, 928 nM and 1080 nM.
On to `O=C1NCCOc2ccc(F)cc2C(C2CCC2)Nc2ccn3ncc1c3n2` (stereo not drawn) [Example 86, 13-cyclobutyl-11-fluoro-6,7,13,14-tetrahydro-1,15-ethenopyrazolo[4,3-f][1,4,8,10]benzoxatriazacyclotridecin-4(5H)-one], for which the results for the concentration for half-maximal inhibition (IC50) in assay [2] and in assay [3] were 2000 nM and 1000 nM, respectively.
In the case of `[2H]C1([2H])NC(=O)c2cnn3ccc(nc23)N(C)Cc2cc(F)ccc2OC1([2H])[2H]` [Example 87, 11-fluoro-14-methyl(6,6,7,7-^2H4)-6,7,13,14-tetrahydro-1,15-ethenopyrazolo[4,3-f][1,4,8,10]benzoxatriazacyclotridecin-4(5H)-one], the results for the half-inhibitory concentration (IC50) in assay [1], in assay [2] and in assay [3] were 0.3 nM, 2730 nM and 1590 nM, respectively.
For `O=C1NCCOc2ccc(F)cc2C(c2ccccc2)Nc2ccn3ncc1c3n2` (stereo not drawn) [Example 88, 11-fluoro-13-phenyl-6,7,13,14-tetrahydro-1,15-ethenopyrazolo[4,3-f][1,4,8,10]benzoxatriazacyclotridecin-4(5H)-one], in that order: 50.4 nM, 1900 nM and 3130 nM.
As to `O=C1NCCOc2ccc(F)cc2C(CC2CC2)Nc2ccn3ncc1c3n2` (stereo not drawn) [Example 89, 13-(cyclopropylmethyl)-11-fluoro-6,7,13,14-tetrahydro-1,15-ethenopyrazolo[4,3-f][1,4,8,10]benzoxatriazacyclotridecin-4(5H)-one], the IC50 stood at 0.2 nM in assay [1], 859 nM in assay [2] and 1400 nM in assay [3].
In the same order, the values of `C[C@H]1Nc2ccn3ncc(c3n2)C(=O)NC[C@@H](O)COc2ccc(F)cc21` [Example 90, (7R,14R)-12-fluoro-7-hydroxy-14-methyl-5,6,7,8,14,15-hexahydro-4H-1,16-ethenopyrazolo[4,3-g][1,5,9,11]benzoxatriazacyclotetradecin-4-one] are 1.8 nM, 5910 nM and 1650 nM.
For `C[C@H]1Nc2ccn3ncc(c3n2)C(=O)NC[C@H](O)COc2ccc(F)cc21` [Example 91, (7S,14R)-12-fluoro-7-hydroxy-14-methyl-5,6,7,8,14,15-hexahydro-4H-1,16-ethenopyrazolo[4,3-g][1,5,9,11]benzoxatriazacyclotetradecin-4-one], in that order: 1.8 nM, 1540 nM and 961 nM.
`C[C@@H]1CNC(=O)c2cnn3ccc(nc23)N(C)Cc2cc(F)ccc2O1` [Example 94, (7R)-11-fluoro-7,14-dimethyl-6,7,13,14-tetrahydro-1,15-ethenopyrazolo[4,3-f][1,4,8,10]benzoxatriazacyclotridecin-4(5H)-one]: the half-inhibitory concentration (IC50) was 0.2 nM in assay [1], > 10000 nM in assay [2] and > 10000 nM in assay [3].
Take `C[C@@H]1COc2ccc(F)cc2CN(C)c2ccn3ncc(c3n2)C(=O)N1` [Example 95, (6R)-11-fluoro-6,14-dimethyl-6,7,13,14-tetrahydro-1,15-ethenopyrazolo[4,3-f][1,4,8,10]benzoxatriazacyclotridecin-4(5H)-one]: the concentration for half-maximal inhibition (IC50) came out at 0.4 nM in assay [1], 2670 nM in assay [2] and 4110 nM in assay [3].
For `CN1Cc2cc(F)ccc2OCC(O)CNC(=O)c2cnn3ccc1nc23` (stereo not drawn) [Example 96, 12-fluoro-7-hydroxy-15-methyl-5,6,7,8,14,15-hexahydro-4H-1,16-ethenopyrazolo[4,3-g][1,5,9,11]benzoxatriazacyclotetradecin-4-one], in that order: 0.6 nM, 6000 nM and 5000 nM.
For `C[C@H]1CNC(=O)c2cnn3ccc(nc23)N(C)Cc2cc(F)ccc2O1` [Example 97, (7S)-11-fluoro-7,14-dimethyl-6,7,13,14-tetrahydro-1,15-ethenopyrazolo[4,3-f][1,4,8,10]benzoxatriazacyclotridecin-4(5H)-one], in that order: 0.3 nM, 6500 nM and 1420 nM.
Turning to `O=C1NCCCOc2ccc(F)cc2C(CO)Nc2ccn3ncc1c3n2` (stereo not drawn) [Example 99, 12-fluoro-14-(hydroxymethyl)-5,6,7,8,14,15-hexahydro-4H-1,16-ethenopyrazolo[4,3-g][1,5,9,11]benzoxatriazacyclotetradecin-4-one], the concentration for half-maximal inhibition (IC50) worked out at 6.3 nM in assay [1], 6850 nM in assay [2] and 506 nM in assay [3].
